{
  "source": "patent US20250042889A1",
  "about": "“3CLPRO PROTEASE INHIBITOR” (SHANGHAI QILU PHARMACEUTICAL RESEARCH AND DEVELOPMENT …, priority 2021, published 2025)",
  "data": [
    {"molecular_target": "SARS-COV-2 3CLpro/Mpro protease (Severe acute respiratory syndrome coronavirus 2 (2019-nCoV) (SARS-CoV-2), UniProt P0DTD1)", "assay": "Inhibitory effect on SARS-COV-2 3CLpro/Mpro protease by fluorescence resonance energy transfer", "type": "biochemical", "details": "IC50 (nM), Inhibition on SARS-CoV-2 3CLpro/Mpro protease, activity intervals A-D", "units": {"IC50": "nM"}, "values": [
      {"smiles": "CNc1cncc(C(=O)N2CCC[C@@H](Nc3c(C(=O)N4C5COCC4C5)cc(Br)cc3[N+](=O)[O-])C2)c1", "note": "[Example 357, ((3R)-3-((2-(3-oxa-6-azabicyclo[3.1.1]heptan-6-carbonyl)-4-bromo-6-nitrophenyl)amino)piperidin-1-yl)(5-(methylamino)pyridin-3-yl)methanone]", "IC50": "10 to 50"},
      {"smiles": "CNc1cncc(C(=O)N2CCC[C@@H](Nc3c(C(=O)N4C5CCC4COC5)cc(Br)cc3[N+](=O)[O-])C2)c1", "note": "[Example 358]", "IC50": "10 to 50"},
      {"smiles": "CNc1cncc(C(=O)N2C[C@H](Nc3c(C(=O)N4C5CCCC4COC5)cc(Br)cc3[N+](=O)[O-])[C@@H](OC)C2)c1", "note": "[Example 371]", "IC50": "10 to 50"}
    ]},
    {"molecular_target": "SARS-COV-2 3CLpro/Mpro protease (Severe acute respiratory syndrome coronavirus 2 (2019-nCoV) (SARS-CoV-2), UniProt P0DTD1)", "assay": "Inhibitory effect on SARS-COV-2 3CLpro/Mpro protease by fluorescence resonance energy transfer", "type": "biochemical", "details": "activity intervals A-D, read-out: IC50 (nM), Inhibition on SARS-CoV-2 3CLpro/Mpro protease", "units": {"IC50": "nM"}, "values": [
      {"smiles": "CNc1cncc(C(=O)N2CCC[C@@H](Nc3c(C(=O)N4CCn5ccnc5C4)cc(Br)cc3[N+](=O)[O-])C2)c1", "note": "[Example 352]", "IC50": "10 to 50"},
      {"smiles": "[2H]C1([2H])CN(C(=O)c2cc(Br)cc([N+](=O)[O-])c2N[C@@H]2CCCN(C(=O)c3cncc(NC)c3)C2)CC([2H])([2H])O1", "note": "[Example 353]", "IC50": "10 to 50"},
      {"smiles": "[2H]C1([2H])CC[C@@H](Nc2c(C(=O)N3C[C@@H](C)O[C@@H](C)C3)cc(Br)cc2[N+](=O)[O-])C([2H])([2H])N1C(=O)c1cncc(NC)c1", "note": "[Example 354]", "IC50": "10 to 50"},
      {"smiles": "CNc1cncc(C(=O)N2CCC[C@@H](Nc3c(C(=O)N4CCOC[C@H]4C)cc(Br)cc3[N+](=O)[O-])C2)c1", "note": "[Example 355]", "IC50": "10 to 50"},
      {"smiles": "CNc1cncc(C(=O)N2CCC[C@@H](Nc3c(C(=O)N4CCOC[C@@H]4C)cc(Br)cc3[N+](=O)[O-])C2)c1", "note": "[Example 356]", "IC50": "10 to 50"},
      {"smiles": "CNc1cncc(C(=O)N2CCC[C@@H](Nc3c(C(=O)N4[C@H](C)COC[C@@H]4C)cc(Br)cc3[N+](=O)[O-])C2)c1", "note": "[Example 359]", "IC50": "10 to 50"},
      {"smiles": "CNc1cncc(C(=O)N2C[C@H](Nc3c(C(=O)N4CC5CCC(C4)O5)cc(Br)cc3[N+](=O)[O-])[C@@H](OC)C2)c1", "note": "[Example 360]", "IC50": "10 to 50"},
      {"smiles": "COCCN1CCN(C(=O)c2cc(Br)cc([N+](=O)[O-])c2N[C@@H]2CCCN(C(=O)[C@H]3CNCC(F)(F)C3)C2)CC1", "note": "[Example 361]", "IC50": "10 to 50"},
      {"smiles": "CNc1cncc(C(=O)N2C[C@H](Nc3c(C(=O)N4C[C@@H](C)O[C@@H](C)C4)cc(Br)cc3[N+](=O)[O-])C[C@H]2C(=O)N2CCNC(=O)C2)c1", "note": "[Example 364]", "IC50": "50 to 100"},
      {"smiles": "CNc1cncc(C(=O)N2C[C@H](Nc3c(C(=O)N4C[C@@H](C)O[C@@H](C)C4)cc(Br)cc3[N+](=O)[O-])C[C@H]2C(=O)N2CCc3nn(C)cc3C2)c1", "note": "[Example 365]", "IC50": "50 to 100"},
      {"smiles": "CNC(=O)[C@@H]1C[C@@H](Nc2c(C(=O)N3C[C@@H](C)O[C@@H](C)C3)cc(Br)cc2[N+](=O)[O-])CN1C(=O)c1cncc(NC)c1", "note": "[Example 366]", "IC50": "10 to 50"},
      {"smiles": "CNc1cncc(C(=O)N2C[C@H](Nc3c(C(=O)N4CCOC[C@H]4C)cc(Br)cc3[N+](=O)[O-])[C@@H](OC)C2)c1", "note": "[Example 367]", "IC50": "10 to 50"},
      {"smiles": "CNc1cncc(C(=O)N2CCC[C@@H](Nc3c(C(=O)N4CC(F)(F)OC(F)(F)C4)cc(Br)cc3[N+](=O)[O-])C2)c1", "note": "[Example 368, (R)-(5-bromo-2-((1-(5-(methylamino)nicotinoyl)piperidin-3-yl)amino)-3-nitrophenyl)(2,2,6,6-tetrafluoromorpholinyl)methanone]", "IC50": "10 to 50"},
      {"smiles": "CNc1cncc(C(=O)N2C[C@H](Nc3c(C(=O)N4C[C@@H](C)O[C@@H](C)C4)cc(Br)cc3[N+](=O)[O-])C[C@H]2C(=O)Nc2cnoc2)c1", "note": "[Example 369, (2S,4R)-4-((4-bromo-2-((2R,6S)-2,6-dimethylmorpholin-4-carbonyl)-6-nitrophenyl)amino)-N-(isoxazol-4-yl)-1-(5-(methylamino)nicotinoyl) pyrrolidin-2-formamide]", "IC50": "50 to 100"},
      {"smiles": "CNc1cncc(C(=O)N2C[C@H](Nc3c(C(=O)N4C[C@@H](C)O[C@@H](C)C4)cc(Br)cc3[N+](=O)[O-])C[C@H]2C(=O)Nc2cccc(Br)c2)c1", "note": "[Example 370]", "IC50": "50 to 100"},
      {"smiles": "CNc1cncc(C(=O)N2C[C@H](Nc3c(C(=O)N4CCC(F)(F)CC4)cc(Br)cc3[N+](=O)[O-])[C@@H](OC)C2)c1", "note": "[Example 372]", "IC50": "10 to 50"},
      {"smiles": "C#C[C@@H]1C[C@@H](Nc2c(C(=O)N3C[C@@H](C)O[C@@H](C)C3)cc(Br)cc2[N+](=O)[O-])CN1C(=O)c1cncc(NC)c1", "note": "[Example 373]", "IC50": "50 to 100"},
      {"smiles": "CNc1cncc(C(=O)N2C[C@H](Nc3c(C(=O)N4CCCC(F)(F)C4)cc(Br)cc3[N+](=O)[O-])[C@@H](OC)C2)c1", "note": "[Example 374]", "IC50": "10 to 50"},
      {"smiles": "CNc1cncc(C(=O)N2C[C@H](Nc3c(C(=O)N4CCOC(F)(F)C4)cc(Br)cc3[N+](=O)[O-])[C@@H](OC)C2)c1", "note": "[Example 375]", "IC50": "10 to 50"},
      {"smiles": "CNc1cncc(C(=O)N2C[C@H](Nc3c(C(=O)N4C[C@@H](C)O[C@@H](C)C4)cc(Br)cc3[N+](=O)[O-])C[C@H]2C(=O)N2CCOCC2)c1", "note": "[Example 376]", "IC50": "50 to 100"},
      {"smiles": "CNc1cncc(C(=O)N2C[C@H](Nc3c(C(=O)N4C[C@@H](C)O[C@@H](C)C4)cc(Br)cc3[N+](=O)[O-])C[C@H]2C(=O)N(C)C)c1", "note": "[Example 377]", "IC50": "50 to 100"},
      {"smiles": "CNc1cncc(C(=O)N2C[C@H](Nc3c(C(=O)N4C[C@@H](C)O[C@@H](C)C4)cc(Br)cc3[N+](=O)[O-])C[C@H]2C(=O)NC2CNC(=O)C2)c1", "note": "(stereo partly drawn) [Example 378]", "IC50": "10 to 50"},
      {"smiles": "CNc1cncc(C(=O)N2C[C@H](Nc3c(C(=O)N4C[C@@H](C)O[C@@H](C)C4)cc(Br)cc3[N+](=O)[O-])C[C@H]2C(N)=O)c1", "note": "[Example 379, (2S,4R)-4-((4-bromo-2-((2R,6S)-2,6-dimethylmorpholin-4-carbonyl)-6-nitrophenyl)amino)-1-(5-(methylamino)nicotinoyl) pyrrolidin-2-formamide]", "IC50": "10 to 50"},
      {"smiles": "CNc1cncc(C(=O)N2C[C@H](Nc3c(C(=O)N4C[C@@H](C)O[C@@H](C)C4)cc(Br)cc3[N+](=O)[O-])CC2C(=O)NCC(F)(F)F)c1", "note": "(stereo partly drawn) [Example 380]", "IC50": "10 to 50"},
      {"smiles": "CNc1cncc(C(=O)N2C[C@H](Nc3c(C(=O)N4C[C@@H](C)O[C@@H](C)C4)cc(Br)cc3[N+](=O)[O-])C[C@H]2C(=O)N2CC(F)(F)C2)c1", "note": "[Example 382]", "IC50": "50 to 100"},
      {"smiles": "CNc1cncc(C(=O)N2C[C@H](Nc3c(C(=O)N4C[C@@H](C)O[C@@H](C)C4)cc(Br)cc3[N+](=O)[O-])C[C@H]2C(=O)Nc2nn(C)cc2Br)c1", "note": "[Example 383, (2S,4R)—N-(4-bromo-1-methyl-1H-pyrazol-3-yl)-4-((4-bromo-2-((2R,6S)-2,6-dimethylmorpholin-4-carbonyl)-6-nitrophenyl)amino)-1-(5-(methylamino)nicotinoyl) pyrrolidin-2-formamide]", "IC50": "10 to 50"},
      {"smiles": "CNc1cncc(C(=O)N2C[C@H](Nc3c(C(=O)N4C[C@@H](C)O[C@@H](C)C4)cc(Br)cc3[N+](=O)[O-])C[C@H]2C(=O)Nc2ccn(C)n2)c1", "note": "[Example 385]", "IC50": "10 to 50"},
      {"smiles": "CNc1cncc(C(=O)N2C[C@H](Nc3c(C(=O)N4C[C@@H](C)O[C@@H](C)C4)cc(Br)cc3[N+](=O)[O-])C[C@H]2C(=O)N2CC(O)C2)c1", "note": "[Example 386]", "IC50": "50 to 100"},
      {"smiles": "CNc1cncc(C(=O)N2C[C@H](Nc3c(C(=O)N4C[C@@H](C)O[C@@H](C)C4)cc(Br)cc3[N+](=O)[O-])C[C@H]2C(=O)Nc2ccccc2)c1", "note": "[Example 387]", "IC50": "10 to 50"},
      {"smiles": "CNc1cncc(C(=O)N2C[C@H](Nc3c(C(=O)N4C[C@@H](C)O[C@@H](C)C4)cc(Br)cc3[N+](=O)[O-])C[C@H]2C(=O)NC2CC2)c1", "note": "[Example 388]", "IC50": "50 to 100"}
    ]}
  ]
}
